The text below walks through data of patent US4351949A, “Bicyclic prostaglandin analogs and method of synthesis” (Iowa State University Research Foundation, Inc., priority 1981, dated 1982).

The subject of assay [1] is arachidonic acid induced platelet aggregation. Briefly: in vitro arachidonic acid induced blood platelet aggregation. The assay is classed as cell-based. The method, then:
The compounds of Examples 1 through 11 were tested against arachidonic acid induced platelet aggregation.

The subject of assay [2] is experimental thrombosis. Conditions: cited from earlier work; for inhibition of laser-induced thrombosis by potent inhibitors of platelet aggregation: rabbit ear chamber, general statement on the model.
The subject of assay [3] is experimental thrombosis. The experiment in a line: in vivo biolaser model of experimental thrombosis (rabbit ear chamber). Conditions: combined with anagrelide at a lower than threshold level. From the text:
These compounds were studied in vivo in an animal model for experimental thrombosis. The use of this model is described in detail in the reprint, Use of the Biolaser in the Evaluation of Anti-Thrombotic Agents, J. S. Fleming et al. "Platelets and Thrombosis", eds. S. Sherry and A. Scriabrine, University Park Press, 1974, Baltimore, which is incorporated herein by reference.
In brief, a micro-injury is created by a laser beam focused through a microscope onto the endothelium surface of a small blood vessel in a surgically implanted ear chamber of a rabbit. The injury induces the rapid formation of a platelet thrombis which can be measured. […] Prostacyclin is active in the biolaser model when infused intraveneously. The results of these tests preliminarily indicate that there is a super additive interaction between anagrelide and the compounds of this invention. […] To date, no other compounds have undergone significant in vivo analysis in the rabbit ear test.

The mark [4] stands for this setting: Platelet, for comparison, vs arachidonic acid, read-out: EC 50 of comparison compounds.
The mark [5] stands for this setting: concentration of agent necessary to reduce by 50% the in vitro blood platelet aggregation caused by addition of arachidonic acid, read-out: EC 50 vs Arachidonic Acid.

Converted amounts (≈) assume the structure as drawn. Like-named read-outs stand apart in the source and are kept apart here.

On to `CCCCC[C@H](O)/C=C/[C@@H]1[C@H]2C/C(=C/CCCC(=O)O)O[C@H]2C[C@H]1O` [prostacyclin], for which, in assay [1] (setting [4]), the EC50 was found to be 0.004 µg/mL (≈ 0.0113 µM). In the assay on experimental thrombosis [2] (infused intravenously, rabbit), the “activity in the biolaser model” value is “active”. For the same compound, the “inhibition of laser-induced thrombosis by potent inhibitors of platelet aggregation” value with experimental thrombosis [2] is “significant inhibition”.

As to `CCCCCC(O)C#CC1C2CCC(C2)C1C/C=C/CCCCO` (stereo not drawn) [Example 9], the EC50 in assay [1] (setting [5]) was found to be 3.6 µg/mL (≈ 10.8 µM).

As to `CCCCCC(O)C#CC1C2CCC(C2)C1C/C=C/C(=O)O` (stereo not drawn) [Example 5], the EC50 in assay [1] (setting [5]) worked out at 4 µg/mL (≈ 13.1 µM).

On to `CCCCCC(O)C#CC1C2CCC(C2)C1C/C=C/CCCC(=O)OC` (stereo not drawn) [Example 2], for which the EC50 in assay [1] (setting [5]) was found to be 0.07 µg/mL (≈ 0.194 µM). In addition, the “reduction in thrombosis in combination with anagrelide” value in the assay on experimental thrombosis [3] is “substantial reduction in thrombosis”.

With `CCCCCC(O)C#CC1C2CCC(C2)C1C/C=C/CCCCCCCC(=O)O` (stereo not drawn) [Example 3], the EC50 in assay [1] (setting [5]) came to 1 µg/mL (≈ 2.48 µM).

As to `CCCCCC(O)C#CC1C2CCC(C2)C1C/C=C/CCCCCCCC(=O)OC` (stereo not drawn) [Example 4], the EC50 in assay [1] (setting [5]) was 0.4 µg/mL (≈ 0.96 µM).

Turning to `CCCCCC(O)C#CC1C2CCC(C2)C1C/C=C/CCCC(=O)O` (stereo not drawn) [Example 1], the EC50 in assay [1] (setting [5]) came to 0.045 µg/mL (≈ 0.13 µM).

Consider `CCCCCC(O)C#CC1C2CCC(C2)C1C/C=C/C(=O)OC` (stereo not drawn) [Example 6], for which the EC50 in assay [1] (setting [5]) came to 8 µg/mL (≈ 25.1 µM).

Consider `CCCCCC(O)C#CC1C2CCC(CC2)C1C/C=C/CCCC(=O)OC` (stereo not drawn) [Example 8], for which, in assay [1] (setting [5]), the EC50 turned out to be 5.8 µg/mL (≈ 15.5 µM).

`CCCCC[C@H](O)/C=C/[C@H]1[C@H](O)CC(=O)[C@@H]1CCCCCCC(=O)O` [PGE1, reference compound]: the EC50 in assay [1] (setting [4]) was determined as 0.018 µg/mL (≈ 0.0508 µM).

On to `CCCCCC(O)C#CC1C2C=CC(C2)C1C/C=C/CCCC(=O)OC` (stereo not drawn) [Example 7], for which the EC50 in assay [1] (setting [5]) was found to be 3.6 µg/mL (≈ 10 µM).

With `O=C1CN2Cc3c(ccc(Cl)c3Cl)N=C2N1` [anagrelide], the “inhibition of laser-induced thrombosis by potent inhibitors of platelet aggregation” value in the assay with experimental thrombosis [2] is on record as “significant inhibition”.
